Measured values published in ChEMBL document CHEMBL2016457, “Discovery of potent and orally bioavailable 17β-hydroxysteroid dehydrogenase type 3 inhibitors” (Bioorg Med Chem, 2012).
Calls of active or inactive are those of the source. How the calls were made is not given here.

Columns and labels:
[1] = biological target: T1, Androgen receptor (Homo sapiens) (UniProt P10275); assay: Antagonist activity at human androgen receptor expressed in human HeLa cells assessed as inhibition of DHT-induced response after 40 hrs by luciferase/beta-galactosidase-based reporter gene assay; format: functional, cell-based
T1 sequence (whole entry): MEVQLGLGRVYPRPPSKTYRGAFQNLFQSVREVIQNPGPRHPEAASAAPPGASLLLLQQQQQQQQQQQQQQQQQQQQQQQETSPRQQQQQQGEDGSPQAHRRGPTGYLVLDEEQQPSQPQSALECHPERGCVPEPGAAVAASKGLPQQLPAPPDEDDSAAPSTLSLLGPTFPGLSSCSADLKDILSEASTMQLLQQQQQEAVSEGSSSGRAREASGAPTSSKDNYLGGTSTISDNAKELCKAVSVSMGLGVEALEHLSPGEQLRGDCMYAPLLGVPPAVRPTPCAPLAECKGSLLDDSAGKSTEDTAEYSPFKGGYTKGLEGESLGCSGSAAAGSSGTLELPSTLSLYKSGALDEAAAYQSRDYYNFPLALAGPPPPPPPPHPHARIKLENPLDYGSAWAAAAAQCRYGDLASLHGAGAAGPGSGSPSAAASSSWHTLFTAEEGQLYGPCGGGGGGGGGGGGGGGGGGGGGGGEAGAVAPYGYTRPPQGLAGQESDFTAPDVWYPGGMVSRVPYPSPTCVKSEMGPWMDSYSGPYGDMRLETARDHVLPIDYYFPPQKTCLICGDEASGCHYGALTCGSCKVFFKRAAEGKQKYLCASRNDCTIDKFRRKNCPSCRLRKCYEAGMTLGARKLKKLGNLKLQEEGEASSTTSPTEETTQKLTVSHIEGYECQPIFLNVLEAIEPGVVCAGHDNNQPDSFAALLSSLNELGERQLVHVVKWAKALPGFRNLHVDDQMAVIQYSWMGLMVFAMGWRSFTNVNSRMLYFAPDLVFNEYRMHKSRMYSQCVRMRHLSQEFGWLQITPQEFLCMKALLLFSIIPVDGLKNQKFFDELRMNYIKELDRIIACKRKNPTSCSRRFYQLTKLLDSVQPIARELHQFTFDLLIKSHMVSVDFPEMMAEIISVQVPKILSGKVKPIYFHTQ

[2] = biological target: T2, 17-beta-hydroxysteroid dehydrogenase type 2 (Homo sapiens) (UniProt P37059); assay: Inhibition of human recombinant 17-beta-HSD2 expressed in human HeLa cells using estradiol as substrate preincubated for 30 mins prior substrate addition measured after 120 mins by spectrophotometry; format: cell-based
T2 sequence (whole entry): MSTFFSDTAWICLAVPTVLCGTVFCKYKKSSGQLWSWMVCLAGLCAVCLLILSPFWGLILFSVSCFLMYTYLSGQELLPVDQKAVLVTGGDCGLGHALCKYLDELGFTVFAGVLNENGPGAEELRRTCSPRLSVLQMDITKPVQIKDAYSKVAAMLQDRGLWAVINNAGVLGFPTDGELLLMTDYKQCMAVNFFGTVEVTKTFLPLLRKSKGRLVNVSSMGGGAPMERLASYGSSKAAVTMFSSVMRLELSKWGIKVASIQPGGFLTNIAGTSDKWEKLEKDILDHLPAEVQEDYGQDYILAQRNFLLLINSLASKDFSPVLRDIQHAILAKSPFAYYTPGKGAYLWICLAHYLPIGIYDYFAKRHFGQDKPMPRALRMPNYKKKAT

[3] = biological target: T3, Estrogen receptor (Homo sapiens) (UniProt P03372); assay: Agonist activity at human Estrogen receptor ERalpha expressed in human HeLa cells assessed as DHT-induced response after 40 hrs by luciferase/beta-galactosidase-based reporter gene assay; format: functional, cell-based
T3 sequence (whole entry): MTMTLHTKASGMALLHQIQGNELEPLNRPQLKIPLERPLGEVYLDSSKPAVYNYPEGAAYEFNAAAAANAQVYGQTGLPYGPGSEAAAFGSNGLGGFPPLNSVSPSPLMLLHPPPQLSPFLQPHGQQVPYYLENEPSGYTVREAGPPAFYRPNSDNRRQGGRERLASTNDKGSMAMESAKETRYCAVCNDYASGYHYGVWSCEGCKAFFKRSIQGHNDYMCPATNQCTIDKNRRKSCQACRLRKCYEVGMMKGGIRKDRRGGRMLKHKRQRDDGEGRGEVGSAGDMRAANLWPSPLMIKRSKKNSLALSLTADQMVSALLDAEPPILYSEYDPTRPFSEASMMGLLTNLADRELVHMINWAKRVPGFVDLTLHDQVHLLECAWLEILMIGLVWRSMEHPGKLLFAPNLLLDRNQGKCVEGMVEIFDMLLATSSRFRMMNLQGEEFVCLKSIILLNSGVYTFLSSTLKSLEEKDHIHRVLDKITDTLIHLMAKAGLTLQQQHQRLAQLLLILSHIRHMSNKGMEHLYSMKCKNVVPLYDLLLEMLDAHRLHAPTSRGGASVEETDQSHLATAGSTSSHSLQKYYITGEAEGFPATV

[4] = biological target: T4, Glucocorticoid receptor (Homo sapiens) (UniProt P04150); assay: Antagonist activity at human GR receptor expressed in human HeLa cells assessed as inhibition of DHT-induced response after 40 hrs by luciferase/beta-galactosidase-based reporter gene assay; format: functional, cell-based
T4 sequence (whole entry): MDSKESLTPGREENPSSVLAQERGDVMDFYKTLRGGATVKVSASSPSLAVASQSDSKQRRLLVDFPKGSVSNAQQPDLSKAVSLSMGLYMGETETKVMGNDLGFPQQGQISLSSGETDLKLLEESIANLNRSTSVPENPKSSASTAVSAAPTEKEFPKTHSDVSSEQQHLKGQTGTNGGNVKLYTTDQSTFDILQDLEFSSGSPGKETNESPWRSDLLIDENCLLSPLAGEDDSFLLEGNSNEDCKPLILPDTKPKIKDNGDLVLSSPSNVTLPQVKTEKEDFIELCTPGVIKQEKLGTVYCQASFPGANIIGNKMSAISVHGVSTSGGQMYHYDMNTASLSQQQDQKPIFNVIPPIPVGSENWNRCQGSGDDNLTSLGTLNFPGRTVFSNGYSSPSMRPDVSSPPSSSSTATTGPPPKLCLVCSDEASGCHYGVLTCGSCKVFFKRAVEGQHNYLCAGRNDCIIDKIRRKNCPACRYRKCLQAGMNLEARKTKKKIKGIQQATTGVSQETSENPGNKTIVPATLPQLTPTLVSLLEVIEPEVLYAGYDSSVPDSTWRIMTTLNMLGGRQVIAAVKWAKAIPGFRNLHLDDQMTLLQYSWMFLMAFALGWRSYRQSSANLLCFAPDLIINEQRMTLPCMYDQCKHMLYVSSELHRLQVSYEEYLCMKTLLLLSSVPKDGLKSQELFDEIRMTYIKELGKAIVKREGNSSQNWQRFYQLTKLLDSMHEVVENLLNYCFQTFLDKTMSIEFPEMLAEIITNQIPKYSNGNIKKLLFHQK

[5] = biological target: T3, Estrogen receptor (Homo sapiens); assay: Antagonist activity at human ERalpha receptor expressed in human HeLa cells assessed as inhibition of DHT-induced response after 40 hrs by luciferase/beta-galactosidase-based reporter gene assay; format: functional, cell-based
[6] = biological target: T5, 17-beta-hydroxysteroid dehydrogenase type 3 (Homo sapiens, UniProt P37058)
T5 sequence (P37058 whole entry): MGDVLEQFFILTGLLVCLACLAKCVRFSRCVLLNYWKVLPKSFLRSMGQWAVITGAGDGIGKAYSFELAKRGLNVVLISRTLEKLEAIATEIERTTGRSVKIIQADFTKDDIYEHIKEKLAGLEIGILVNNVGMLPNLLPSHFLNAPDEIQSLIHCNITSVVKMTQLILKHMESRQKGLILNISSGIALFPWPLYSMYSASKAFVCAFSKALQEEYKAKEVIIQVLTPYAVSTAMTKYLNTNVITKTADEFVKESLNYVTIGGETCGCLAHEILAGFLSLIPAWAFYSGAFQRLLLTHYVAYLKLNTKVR
Description: Inhibition of human recombinant 17-beta-HSD3 expressed in human HeLa cells using androstenedione as substrate preincubated for 30 mins prior substrate addition measured after 120 mins by spectrophotometry

[7] = biological target: T4, Glucocorticoid receptor (Homo sapiens); assay: Agonist activity at human Glucocorticoid receptor expressed in human HeLa cells assessed as DHT-induced response after 40 hrs by luciferase/beta-galactosidase-based reporter gene assay; format: functional, cell-based
[8] = biological target: T1, Androgen receptor (Homo sapiens); assay: Agonist activity at human androgen receptor expressed in human HeLa cells assessed as DHT-induced response after 40 hrs by luciferase/beta-galactosidase-based reporter gene assay; format: functional, cell-based
[9] = biological target: T6, 17-beta-hydroxysteroid dehydrogenase type 1 (Homo sapiens) (UniProt P14061); assay: Inhibition of human recombinant 17-beta-HSD1 expressed in human HeLa cells using estrone as substrate preincubated for 30 mins prior substrate addition measured after 120 mins by spectrophotometry; format: cell-based
T6 sequence (whole entry): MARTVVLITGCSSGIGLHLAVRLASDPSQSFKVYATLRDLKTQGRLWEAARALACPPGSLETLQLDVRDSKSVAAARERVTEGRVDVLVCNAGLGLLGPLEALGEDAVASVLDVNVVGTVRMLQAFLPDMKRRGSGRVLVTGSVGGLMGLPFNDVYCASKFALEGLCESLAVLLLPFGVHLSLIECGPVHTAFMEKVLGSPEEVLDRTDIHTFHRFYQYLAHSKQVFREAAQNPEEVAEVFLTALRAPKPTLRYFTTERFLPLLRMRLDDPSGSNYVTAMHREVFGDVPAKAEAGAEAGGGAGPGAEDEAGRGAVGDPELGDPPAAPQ

SMILES: CNC(=O)c1ccc(N2C(=O)O/C(=C\c3ccc(O)c(Br)c3)C2=O)cc1
- Activity [1]: inactive
- inhibition [2]: inactive
- Activity [3]: inactive
- Activity [4]: inactive
- Activity [5]: inactive
- IC50 [6]: 56 nM
- Activity [7]: inactive
- Activity [8]: inactive
- inhibition [9]: inactive

SMILES: COc1ccc(CN2C(=O)/C(=C/c3ccc(O)c(Br)c3)SC2=S)cc1
- Activity [1]: inactive
- inhibition [2]: inactive
- Activity [3]: inactive
- Activity [4]: inactive
- Activity [5]: inactive
- IC50 [6]: 90 nM
- Activity [7]: inactive
- Activity [8]: inactive
- inhibition [9]: inactive

SMILES: O=C1/C(=C/c2ccc(O)c(Br)c2)OC(=S)N1c1ccccc1
- Activity [1]: inactive
- inhibition [2]: inactive
- Activity [3]: inactive
- Activity [4]: inactive
- Activity [5]: inactive
- IC50 [6]: 6 nM
- Activity [7]: inactive
- Activity [8]: inactive
- inhibition [9]: inactive

SMILES: COc1ccc(N2C(=O)/C(=C/c3ccc(O)cc3)OC2=S)cc1
- Activity [1]: inactive
- inhibition [2]: inactive
- Activity [3]: inactive
- Activity [4]: inactive
- Activity [5]: inactive
- IC50 [6]: 121 nM
- Activity [7]: inactive
- Activity [8]: inactive
- inhibition [9]: inactive

SMILES: COc1ccc(N2C(=O)/C(=C(/C)c3ccc(O)c(Br)c3)SC2=S)cc1
- Activity [1]: inactive
- inhibition [2]: inactive
- Activity [3]: inactive
- Activity [4]: inactive
- Activity [5]: inactive
- IC50 [6]: 90 nM
- Activity [7]: inactive
- Activity [8]: inactive
- inhibition [9]: inactive

SMILES: CSc1ccc(N2C(=O)O/C(=C\c3ccc(O)c(Br)c3)C2=O)cc1
- Activity [1]: inactive
- inhibition [2]: inactive
- Activity [3]: inactive
- Activity [4]: inactive
- Activity [5]: inactive
- IC50 [6]: 90 nM
- Activity [7]: inactive
- Activity [8]: inactive
- inhibition [9]: inactive

SMILES: COc1ccc(N2C(=O)/C(=C/c3ccc(O)c(F)c3)OC2=S)cc1
- Activity [1]: inactive
- inhibition [2]: inactive
- Activity [3]: inactive
- Activity [4]: inactive
- Activity [5]: inactive
- IC50 [6]: 2 nM
- Activity [7]: inactive
- Activity [8]: inactive
- inhibition [9]: inactive

SMILES: COc1cccc(N2C(=O)/C(=C/c3ccc(O)c(Br)c3)OC2=S)c1
- Activity [1]: inactive
- inhibition [2]: inactive
- Activity [3]: inactive
- Activity [4]: inactive
- Activity [5]: inactive
- IC50 [6]: 7 nM
- Activity [7]: inactive
- Activity [8]: inactive
- inhibition [9]: inactive

SMILES: Cc1ccc(N2C(=O)/C(=C/c3ccc(O)c(Br)c3)OC2=S)cc1
- Activity [1]: inactive
- inhibition [2]: inactive
- Activity [3]: inactive
- Activity [4]: inactive
- Activity [5]: inactive
- IC50 [6]: 2 nM
- Activity [7]: inactive
- Activity [8]: inactive
- inhibition [9]: inactive

SMILES: COC(=O)c1ccc(N2C(=O)O/C(=C\c3ccc(O)c(Br)c3)C2=O)cc1
- Activity [1]: inactive
- inhibition [2]: inactive
- Activity [3]: inactive
- Activity [4]: inactive
- Activity [5]: inactive
- IC50 [6]: 24 nM
- Activity [7]: inactive
- Activity [8]: inactive
- inhibition [9]: inactive

SMILES: C#CCN1C(=O)/C(=C/c2ccc(O)c(Br)c2)SC1=S
- Activity [1]: inactive
- inhibition [2]: inactive
- Activity [3]: inactive
- Activity [4]: inactive
- Activity [5]: inactive
- IC50 [6]: 300 nM
- Activity [7]: inactive
- Activity [8]: inactive
- inhibition [9]: inactive
